Source: article PMC8981563 (RSC Advances, 2022)

Target: T1, human GPR120 (Homo sapiens, UniProt Q5NUL3)
T1 sequence (Q5NUL3 1-361): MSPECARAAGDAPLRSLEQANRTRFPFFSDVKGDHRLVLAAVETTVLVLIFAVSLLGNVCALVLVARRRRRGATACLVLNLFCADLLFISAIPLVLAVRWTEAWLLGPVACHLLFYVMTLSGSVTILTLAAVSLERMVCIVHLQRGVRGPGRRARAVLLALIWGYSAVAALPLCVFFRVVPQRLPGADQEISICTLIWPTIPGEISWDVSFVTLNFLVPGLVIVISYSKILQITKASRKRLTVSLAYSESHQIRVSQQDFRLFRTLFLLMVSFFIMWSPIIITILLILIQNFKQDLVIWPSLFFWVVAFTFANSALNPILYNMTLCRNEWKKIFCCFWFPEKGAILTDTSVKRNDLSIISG
Assay: Ca2+ influx activity of CHO cells expressing human GPR120
Assay type: cell-based

Structure (SMILES) | EC50
COc1cc(OCc2cc(F)ccc2-c2ccc(C)cc2)ccc1CC1SC(=O)NC1=O (stereo not shown) [Compound 3g, 5-(4-((4-Fluoro-4′-methyl-[1,1′-biphenyl]-2-yl)methoxy)-2-methoxybenzyl)thiazolidine-2,4-dione] | 122 ± 13.1 nM
Cc1ccc(-c2ccc(F)cc2COc2ccc(CC3SC(=O)NC3=O)cc2F)cc1 (stereo not shown) [Compound 7g, 5-(3-Fluoro-4-((4-fluoro-4′-methyl-[1,1′-biphenyl]-2-yl)methoxy)benzyl)thiazolidine-2,4-dione] | 276 ± 20.5 nM
Cc1ccc(-c2ccc(F)cc2COc2ccc(CC3SC(=O)NC3=O)cc2C)cc1 (stereo not shown) [Compound 6g, 5-(4-((4-Fluoro-4′-methyl-[1,1′-biphenyl]-2-yl)methoxy)-3-methylbenzyl)thiazolidine-2,4-dione] | 461 ± 36.1 nM
Cc1ccc(-c2ccc(F)cc2COc2cc(F)c(CC3SC(=O)NC3=O)c(F)c2)cc1 (stereo not shown) [Compound 9g, 5-(2,6-Difluoro-4-((4-fluoro-4′-methyl-[1,1′-biphenyl]-2-yl)methoxy)benzyl)thiazolidine-2,4-dione] | 137 ± 16.3 nM
Cc1ccc(-c2ccc(F)cc2COc2ccc(CC3SC(=O)NC3=O)c(F)c2F)cc1 (stereo not shown) [Compound 8g, 5-(2,3-Difluoro-4-((4-fluoro-4′-methyl-[1,1′-biphenyl]-2-yl)methoxy)benzyl)thiazolidine-2,4-dione] | 142 ± 12.5 nM
Cc1ccc(-c2ccc(F)cc2COc2ccc(CC3SC(=O)NC3=O)c(C)c2)cc1 (stereo not shown) [Compound 2g, 5-(4-((4-Fluoro-4′-methyl-[1,1′-biphenyl]-2-yl)methoxy)-2-methylbenzyl)thiazolidine-2,4-dione] | 134 ± 11.8 nM
Cc1ccc(-c2ccc(F)cc2COc2ccc(CC3SC(=O)NC3=O)cc2)cc1 (stereo not shown) [Compound 1g, 5-(4-((4-Fluoro-4′-methyl-[1,1′-biphenyl]-2-yl)methoxy)benzyl)thiazolidine-2,4-dione] | 182 ± 13.2 nM
